According to US12622948B2 (SUN PHARMACEUTICAL INDUSTRIES LIMITED, priority 2020, dated 2026):
Marks after values point to notes of the source that are not given here. Non-standard residues stand in square brackets, D forms with d. No end group written: not given here. Moiety A = not defined here; Nva = CCC[C@H](N)C(=O)O; Aib = CC(C)(N)C(=O)O

Tested on: type 2 diabetic mouse (db/db) model
Assay: Efficacy study in db/db mice at 10 nM/kg dose (blood glucose, body weight, food intake)
Format: in vivo
Settings: for Cumulative food Intake (g) 0-48 hr. vs. Baseline, Mean / Cumulative food Intake (g) 0-96 hr. vs. Baseline, Mean / Delta Blood Glucose (mM) Mean / Body Wt. Change (%) 48 hr. vs. Baseline, Mean / Body Wt. Change (%) 96 hr. vs. Baseline, Mean: 10 nM/kg s.c. single dose
Method: The effect of compounds of present invention on blood glucose, food intake and body weight was studied in mice. This study was performed in a type 2 diabetic mouse (db/db) model. […] Baseline blood glucose was measured from all the animals. […] All the animals were administered with test items subcutaneously. […] Delta blood glucose (mM) was calculated.

[1] = Study 3, db/db mice, 0 hr (baseline)
[2] = db/db mice, 10 nM/kg s.c., vs diabetic control

Compound 8: SEQ ID 08 polypeptide, C-terminal Lys40 acylated with Moiety A (Y[Aib]EGTFTSDYSI[Nva]LEKIAAQEFVNWLLAGGPSSGAPPPSK(Moiety A)-NH2; reading uncertain)
Cumulative food Intake (g) 0-48 hr. vs. Baseline, Mean (Study 3, db/db mice): 4.0*** g | Cumulative food Intake (g) 0-96 hr. vs. Baseline, Mean (Study 3, db/db mice): 13.9*** g | Delta Blood Glucose (mM) Mean [1]: 0 mM | Delta Blood Glucose (mM) Mean (Study 3, db/db mice, 4 hr): −13.6*** mM | Delta Blood Glucose (mM) Mean (Study 3, db/db mice, 8 hr): −13.6*** mM | Delta Blood Glucose (mM) Mean (Study 3, db/db mice, 12 hr): −13.6*** mM | Delta Blood Glucose (mM) Mean (Study 3, db/db mice, 24 hr): −8.5*** mM | Body Wt. Change (%) 48 hr. vs. Baseline, Mean (Study 3, db/db mice, 48 hr): −3.1*** % | Delta Blood Glucose (mM) Mean (Study 3, db/db mice, 48 hr): −5.6* mM | Delta Blood Glucose (mM) Mean (Study 3, db/db mice, 72 hr): -1.8 mM | Body Wt. Change (%) 96 hr. vs. Baseline, Mean (Study 3, db/db mice, 96 hr): −2.8*** % | Delta Blood Glucose (mM) Mean (Study 3, db/db mice, 96 hr): -0.6 mM

CCC[C@H](NC(=O)[C@@H](NC(=O)[C@H](CO)NC(=O)[C@H](Cc1ccc(O)cc1)NC(=O)[C@H](CC(=O)O)NC(=O)[C@H](CO)NC(=O)[C@@H](NC(=O)[C@H](Cc1ccccc1)NC(=O)[C@@H](NC(=O)CNC(=O)[C@H](CCC(=O)O)NC(=O)C(C)(C)NC(=O)[C@@H](N)Cc1ccc(O)cc1)[C@@H](C)O)[C@@H](C)O)[C@@H](C)CC)C(=O)N[C@@H](CC(C)C)C(=O)N[C@@H](CC(=O)O)C(=O)N[C@@H](CCCCN)C(=O)N[C@H](C(=O)N[C@@H](C)C(=O)N[C@@H](CCC(N)=O)C(=O)N[C@@H](CCCCNC(=O)COCCOCCNC(=O)COCCOCCNC(=O)CC[C@H](NC(=O)CCCCCCCCCCCCCCCCCCC(=O)O)C(=O)O)C(=O)N[C@@H](C)C(=O)N[C@@H](Cc1ccccc1)C(=O)N[C@H](C(=O)N[C@@H](CCC(N)=O)C(=O)N[C@@H](Cc1c[nH]c2ccccc12)C(=O)N[C@@H](CC(C)C)C(=O)N[C@H](C(=O)N[C@@H](C)C(=O)NCC(=O)NCC(=O)N1CCC[C@H]1C(=O)N[C@@H](CO)C(=O)N[C@@H](CO)C(=O)NCC(=O)N[C@@H](C)C(=O)N1CCC[C@H]1C(=O)N1CCC[C@H]1C(=O)N1CCC[C@H]1C(=O)N[C@@H](CO)C(N)=O)[C@@H](C)CC)C(C)C)[C@@H](C)CC [Compound 6]
Cumulative food Intake (g) 0-48 hr. vs. Baseline, Mean (Study 2, db/db mice): 4.2*** g | Cumulative food Intake (g) 0-96 hr. vs. Baseline, Mean (Study 2, db/db mice): 16.0*** g | Delta Blood Glucose (mM) Mean (Study 2, db/db mice, 0 hr (baseline)): 0 mM | Delta Blood Glucose (mM) Mean (Study 2, db/db mice, 4 hr): −15.6*** mM | Delta Blood Glucose (mM) Mean (Study 2, db/db mice, 8 hr): −15.9*** mM | Delta Blood Glucose (mM) Mean (Study 2, db/db mice, 12 hr): −16.3*** mM | Delta Blood Glucose (mM) Mean (Study 2, db/db mice, 24 hr): −11.8*** mM | Body Wt. Change (%) 48 hr. vs. Baseline, Mean (Study 2, db/db mice, 48 hr): −5.5*** % | Delta Blood Glucose (mM) Mean (Study 2, db/db mice, 48 hr): −9.5*** mM | Delta Blood Glucose (mM) Mean (Study 2, db/db mice, 72 hr): −2.6* mM | Body Wt. Change (%) 96 hr. vs. Baseline, Mean (Study 2, db/db mice, 96 hr): −2.2** % | Delta Blood Glucose (mM) Mean (Study 2, db/db mice, 96 hr): -1.6 mM | blood glucose reduction [2]: statistically significant blood glucose reduction upto 96 hr post treatment | body weight reduction [2]: statistically significant reduction in food intake and body weight | reduction in food consumption [2]: statistically significant reduction in food intake

Compound 9: SEQ ID 09 polypeptide (C-terminal Arg, free acid), Lys20 acylated with Moiety A (Y[Aib]EGTFTSDYSI[Nva]LDKIAQK(Moiety A)AFVQWLIAGGPSSGAPPPSR-OH; reading uncertain)
Cumulative food Intake (g) 0-48 hr. vs. Baseline, Mean (Study 3, db/db mice): 4.2*** g | Cumulative food Intake (g) 0-96 hr. vs. Baseline, Mean (Study 3, db/db mice): 16.7*** g | Delta Blood Glucose (mM) Mean [1]: 0 mM | Delta Blood Glucose (mM) Mean (Study 3, db/db mice, 4 hr): −13.1*** mM | Delta Blood Glucose (mM) Mean (Study 3, db/db mice, 8 hr): −12.7*** mM | Delta Blood Glucose (mM) Mean (Study 3, db/db mice, 12 hr): −12.1*** mM | Delta Blood Glucose (mM) Mean (Study 3, db/db mice, 24 hr): −8.7*** mM | Body Wt. Change (%) 48 hr. vs. Baseline, Mean (Study 3, db/db mice, 48 hr): −3.4*** % | Delta Blood Glucose (mM) Mean (Study 3, db/db mice, 48 hr): −7.1*** mM | Delta Blood Glucose (mM) Mean (Study 3, db/db mice, 72 hr): −5.6* mM | Body Wt. Change (%) 96 hr. vs. Baseline, Mean (Study 3, db/db mice, 96 hr): −3.8*** % | Delta Blood Glucose (mM) Mean (Study 3, db/db mice, 96 hr): 0 mM
